The results in this text go back to ChEMBL document CHEMBL1131268, “Preparation of biotinylated allosamidins with strong chitinase inhibitory activities” (Bioorg Med Chem Lett, 1998).

Each structure is given as a SMILES string.

Assay [1] concerns Chitinase (Trichoderma). The experiment in a line: Compound was evaluated for inhibitory activity against Trichoderma Chitinase in presence of allosamidin at the dose of 31 ug/mL.
Assay [2] relates to Chitinase (Trichoderma). The experiment in a line: Compound was evaluated for inhibitory activity against trichoderma chitinase in presence of allosamidin at the dose of 500 ug/mL.
Assay [3] has as its system Chitinase (Trichoderma). The experiment in a line: Compound was evaluated for inhibitory activity against Trichoderma Chitinase in presence of allosamidin at the dose of 125 ug/mL.
For assay [4], the system named is Chitinase (Trichoderma). The assay can be described thus: Compound was evaluated for inhibitory activity against Trichoderma Chitinase in presence of allosamidin at the dose of 7.8 ug/mL.

As for `CC(=O)NC(/C=N/NC(=O)CCCCCNC(=O)CCCCC1SC[C@@H]2NC(=O)N[C@H]12)C(OC(/C=N/NC(=O)CCCCCNC(=O)CCCCC1SC[C@@H]2NC(=O)N[C@H]12)CO)OC1C(CO)OC(OC2C(O)C3N=C(N(C)C)OC3C2CO)C(NC(C)=O)C1O` (some centres undefined), the inhibition (as a rule, the change of the read-out against control, counted positive when it falls) in the assay on Chitinase (Trichoderma) [1] came to 21.9%; with Chitinase (Trichoderma) [2], 65.6%; with Chitinase (Trichoderma) [3] it was 42.2%; in the assay with Chitinase (Trichoderma) [4], 7.8%.
